{
  "source": "patent US20080206198A1",
  "about": "“Compounds and methods for pharmico-gene therapy of epithelial sodium channel associated disorders” (priority 2003, published 2008)",
  "key": {"[1]": {"test_system": "polarized human airway epithelial cultures", "assay": "AV2.RSVluc and AV2.RSVlucCap5 transduction of polarized human airway epithelial cultures", "type": "cell-based", "details": "virus applied to the apical surface", "description": "To better understand serotype-specific differences in airway transduction, the effect of proteasome inhibitors on rAAV-2 and rAAV-5 transduction in polarized human airway epithelial cultures and mouse lung was examined (FIGS. 2 and 6)."}, "[2]": {"test_system": "Balb/c mice", "assay": "Safety of anthracyclines in Balb/c mice", "type": "in vivo, mouse", "details": "intranasal, 10% HDE", "description": "(§1) Animals were followed for seven days post dose.\nSafety endpoints included morbidity and mortality, clinical observations, body weights, gross necropsy observations and histopathology. Transduction endpoints included luciferase and GFP analysis."}, "[3]": {"test_system": "ENaC", "assay": "Amiloride-sensitive Isc time course in polarized CuFi epithelia", "type": "cell-based, human", "details": "1 to 14 days"}, "[4]": {"test_system": "γ-ENaC gene promoter", "assay": "Methylation-sensitive PCR of the γ-ENaC promoter CpG island in A549 cells", "type": "cell-based, human", "details": "A549 genomic DNA", "procedure": "Analysis of γ-ENaC promoter CpG Methylation. The methylation status of a CpG island beginning at approximately −1.8 kb of the γ-ENaC promoter was analyzed using a previously described PCR method (Malik et al., 2001). Briefly, genomic DNA was isolated from A549 cells that had been treated with and without doxorubicin, and then digested overnight with Mbol, MboI/MspI, or Mbol/HpaII. PCR reactions were then performed using primers that flank the MspI/HpaII sites in this region. Primers: forward 5′-[…]-3′ (SEQ ID NO: 13); reverse 5′-[…]-3′ (SEQ ID NO: 14)."}, "[5]": {"test_system": "mouse lung", "assay": "Intranasal AAV2-Luc with anthracyclines in Balb/c mice (lung luciferase)", "type": "in vivo", "details": "10% HDE intranasal, day 7", "description": "as §1\nThe dose of modulator was based on the Human Dose Equivalent (HDE) and is summarized below in Table 4. For intranasal dose administration, the dose was held constant at 10% of the HDE.\nOn the day of sacrifice, the left lung was clamped off at the level of the extrapulmonary bronchi, removed and frozen on dry ice. The left lung was homogenized and processed for luciferase expression using Promega's luciferase assay system (Madison, Wis.). Luminescence was measured using the Berthold AutoLumat LB953 instrument. Samples were normalized for total protein using Pierce's Coomassie Plus Protein Assay Reagent (Rockford, Ill.)."}, "[6]": {"test_system": "mouse lung", "assay": "AV2.RSVlucCap5 nasal aspiration in mice with Z-LLL and/or doxorubicin", "type": "in vivo", "details": "200 μM", "procedure": "To determine in vivo transduction efficiency of AV2.RSVlucCap5, mice were infected with 6×10^10 particles of AV2.RSVlucCap5 by nasal aspiration alone (control) or in combination with 200 μM Z-LLL, 200 μM doxorubicin or 200 μM Z-LLL and 200 μM doxorubicin (12 mice per group). Co-administration of Z-LLL induced whole lung luciferase expression 17.2- and 2.1-fold at 14 (2 weeks) and 42 (6 weeks) days post-infection, respectively."}, "[7]": {"test_system": "mouse lung", "assay": "AV.LacZ gene transfer to mouse lung with Z-LLL (X-gal morphometry)", "type": "in vivo", "procedure": "In vivo studies in mice. Animal studies were performed in accordance with the institutional guidelines of the University of Iowa. To determine the effect of the proteasome inhibitor on AAV mediated gene transfer in mouse lung, 6 week-old BALB/c mice were lightly anesthetized using a methoxyflurane chamber. AV.LacZ (5×10^10 particles) was administered alone or with 400 μM Z-LLL in a 10 μl instillation by nasal aspiration as described by Walters et al. (2000). To prevent unforeseen toxicity of DMSO solvent, the proteasome inhibitor Z-LLL was dissolved in ethanol as a 40 mM stock solution and was included in the viral inoculum at 1% final concentration. Viral infection controls in the absence of Z-LLL also contained a 1% final concentration of ethanol. […] The trachea was incubated and instilled at 10 cm of water pressure with the following solutions in order: PBS, 0.5% glutaraldehyde, 1 mM MgCl2/PBS, and finally X-gal staining reagent for an overnight incubation at room temperature. The X-gal stained mouse lungs were then post fixed in 10% neutral buffered formalin for 48 hours at room temperature and cryopreserved in serial 10%, 20% and 30% sucrose/PBS solutions. Lungs (N=3 for each condition) were embedded in OCT (optimal cutting temperature; Baxter, Warrendale, Pa.) and 15 μm serially sections were analyzed for gene transfer by calculating the percentage of positive cells in the airway epithelium. The diameter of the airway was recorded for classification (>360 μm, 260-350 μm, 160-250 μm, <150 μm) of results following morphometric analysis. Greater than 150 airway cross-sections were quantified for each experimental condition."}, "[8]": {"details": "400 μM Z-LLL intranasal, 150 days"}},
  "note": "“And” between values parts separate entries of the source, which are not always exact repeats. Equal values may be shown once. Peptide text beside a SMILES is read from it. * marks the point of attachment. Cbz = O=C(OCc1ccccc1)*",
  "data": [
    {"molecule": "N-acetyl-L-leucinyl-L-leucinal-L-norleucinal [LLnL]", "values": [
      {"measurement": "increase in AV2.RSVlucCap5 transduction", "setting": "[1]", "result": 12, "unit": "fold"}
    ]},
    {"molecule": "COc1cccc2c1C(=O)c1c(O)c3c(c(O)c1C2=O)C[C@@](O)(C(=O)CO)C[C@@H]3O[C@H]1C[C@H](N)[C@H](O)[C@H](C)O1", "note": "[doxorubicin]", "values": [
      {"measurement": "mortality and clinical observations", "setting": "[2]; 7 days", "result": "early mortality of some animals, ruffled hair coats and sick mice"},
      {"measurement": "body weight", "setting": "[2]; over the week", "result": "lost considerable body weight"},
      {"measurement": "ENaC Isc time course", "setting": "[3]", "result": "gradual decline in ENaC Isc"},
      {"measurement": "CpG methylation of the γ-ENaC promoter (protection from HpaII digestion)", "setting": "[4]", "result": "significant Dox-dependent protection from HpaII digestion"},
      {"measurement": "luciferase expression, Average", "setting": "[5]; both sexes", "result": "1.77E+06"},
      {"measurement": "luciferase expression, Average", "setting": "[5]; female", "result": "5.44E+05"},
      {"measurement": "luciferase expression, Average", "setting": "[5]; male", "result": "*4.21E+06"}
    ]},
    {"molecule": "CC(C)C[C@@H](C=O)NC(=O)[C@H](CC(C)C)NC(=O)[C@H](CC(C)C)NC(=O)OCc1ccccc1", "note": "[Z-LLL, N-carbobenzoxyl-L-leucinyl-L-leucinyl-L-leucinal] (Cbz-Leu-Leu-Leu-aldehyde)", "values": [
      {"measurement": "induction of whole lung luciferase expression", "setting": "[6]; 14 days (2 weeks) post-infection", "result": 17.2, "unit": "fold"},
      {"measurement": "induction of whole lung luciferase expression", "setting": "[6]; 42 days (6 weeks) post-infection", "result": 2.1, "unit": "fold"},
      {"measurement": "airway cells transduced by AV.LacZ, average", "setting": "[7]; [8]", "result": "about 5.88%"},
      {"measurement": "airways cells in the smaller bronchioles (<150 mm) expressing β-galactosidase", "setting": "[7]; [8]", "result": "1.37±0.41", "unit": "%"},
      {"measurement": "range of transgene expression in distal airways", "setting": "[7]; [8]", "result": "0 to 4", "unit": "%"},
      {"measurement": "range of transgene expression in proximal airways", "setting": "[7]; [8]", "result": "5 to 18", "unit": "%"},
      {"measurement": "transduction efficiency in larger bronchioles (>350 mm), mean % of the airway epithelium", "setting": "[7]; [8]", "result": "10.36±1.63% and 10.36+/−1.63%"},
      {"measurement": "transgene expression by X-gal staining", "setting": "[7]; 3 and 10 days post infection", "result": "no detectable transgene expression"}
    ]}
  ]
}
